Test results as given in US11364239B2 (priority 2020, dated 2022).
“Also recorded” adds a separate entry of the source.

How the values were obtained:
[1] = tested on: Aflatoxin B1-exposed rats; conditions: rat, in vivo
[2] = tested on: Cyp enzymes (Cyp2b2, Cyp1a1, Cyp3a18, Cyp3a9, Cyp2d2, Cyp2c7, Cyp2a3, Cyp2d1, Cyp2c24, Cyp4a2); conditions: in vivo
[3] = tested on: Aflatoxin B1-exposed rats; conditions: rat, in vivo; remark: listed apart in the source
[4] = tested on: rats; conditions: rat, in vivo

## c1cn2cc(-c3ccc4cn[nH]c4c3)nc(Nc3ccc(N4CCOCC4)cc3)c2n1 [Entospletinib]
[1]; po
  mitigating Aflatoxin B1 induced toxicity or injury: only mildly efficacious

## CCOC(=O)[C@H](CCc1ccccc1)N[C@@H](C)C(=O)N1Cc2ccccc2C[C@H]1C(=O)O [Quinapril]
[1]; po
  beneficial effects on Aflatoxin B1-induced growth impairment or hepatotoxicity: did not show beneficial effects

## CC(C)CN(C[C@@H](O)[C@H](Cc1ccccc1)NC(=O)O[C@H]1CCOC1)S(=O)(=O)c1ccc(N)cc1 [Amprenavir, [(3S)-oxolan-3-yl] N-[(2S,3R)-4-[(4-aminophenyl)sulfonyl-(2-methylpropyl)amino]-3-hydroxy-1-phenylbutan-2-yl]carbamate]
[1]
  final weights (indexed weight): no pairwise comparisons showed significant differences
  liver fibrosis, as assessed by Sirius Red staining: decreased liver fibrosis
  liver hydroxyproline content: trend towards decreased liver hydroxyproline content
  liver hydroxyproline levels (a measure of liver fibrosis): trends towards decreased hydroxyproline
  overall Aflatoxin B1 mitigation activity (liver histopathology: hepatocellular BrdU staining, serum transaminases, hydroxyproline levels): excellent mitigation activity; also recorded: most efficacious drug
  serum ALT levels: significantly lower
  serum transaminases: lower serum transaminases
  survival: improved survival
[2]
  expression of Cyp enzymes in rat livers (transcriptomics): greatly upregulated
[3]
  effect on Aflatoxin B1-induced reduction in weight gain: no effect
  liver hydroxyproline: trends towards reducing
  morphometric measurement of liver fibrosis: trends towards reducing
  overall effects on Aflatoxin B1-induced liver injury: significant or trends towards significant beneficial effects
  serum ALT: reduced serum ALT

## Cyp3cide
[1]; po, 50 mg/kg
  reduction of Aflatoxin B1-induced liver injury: did not reduce

## Aflatoxin B1
[4]
  food intake: comparable food intake
  hepatocellular BrdU staining: variable
  liver histopathology: abnormal liver histopathology
  liver hydroxyproline: significant increase
  serum ALT: reduced Serum ALT
  serum transaminases: trend towards increased serum transaminases
  tissue hydroxyproline: mild elevation
  weight gain: decreased weight gain
